According to patent publication US20260097047A1, “Small molecule inhibitors of the ribosome biogenesis factor NVL2” (Board of Regents, The University of Texas System, priority 2023, published 2026):
pIC50: −log10 of the molar value.

Tested on: HCT116 cells
Assay: Cell viability assay (CellTiter-Glo, 72 hours) in HCT116 human colorectal cancer cells
Format: cell-based
Settings: Homo sapiens, HCT-116; Table 3; HCT116, 72 hours; read-out: Activity
Experimental: Cell culture: The HCT116 cell line was obtained from ATCC and cultured in Dulbecco's Modified Eagle's Medium (DMEM)-high glucose (Sigma Aldrich #D5796) supplemented with 10% fetal bovine serum (FBS) (Sigma-Aldrich #F2442) and 2 mM L-Glutamine (Sigma Aldrich #G7513). Cells were cultured at 37° C. in 5% CO2. The identity of all cell lines was confirmed by short tandem repeat (STR) analysis and confirmed to be mycoplasma-free using a PCR based assay (Genatlantis).
Cell viability assay: In 96-well assay plates (Corning #2903), 2,000 cells were plated per well in 100 μL of medium and allowed to adhere overnight. The next day, compounds suspended in DMSO were dispensed to the assayed wells using a D300e Digital Dispenser (Tecan). All wells were normalized to 0.5% DMSO. 72 hours after incubation at 37° C. in 5% CO2, cell viability was assayed using an ATP-based luminescent viability assay, CellTiter-Glo (Promega #G8462). Substrate was mixed 1:1 with phosphate-buffered saline (PBS) supplemented with 1% Triton X-100, and 40 μL of this mixture was added to the assay wells. Plates were shaken on a microplate shaker for 10 minutes at room temperature. Luminescence (CellTiter-Glo) was recorded using a Synergy 2 microplate reader (BioTek). In Prism 9 software (GraphPad), ten-point dose response curves were plotted with baseline-correction to the vehicle control well, and IC50 values were calculated by curve fitting using asymmetric (five parameter), least squares fit.

pIC50 | Compound
> 6.30 | C#CCOCCN1C(=O)c2ccccc2Sc2cc(NC(=O)NC3CCCCC3)ccc21 [Table 3: —(CH2)2OCH2CCH; cHex; CH/CH, 1-Cyclohexyl-3-(11-oxo-10-(2-(prop-2-yn-1-yloxy)ethyl)-10,11-dihydrodibenzo[b,f][1,4]thiazepin-7-yl) urea]

Same assay, conditions: Homo sapiens, HCT-116; Table 5; HCT116, 72 hours; read-out: Activity

pIC50 | Compound
> 6.30 | CC#CCN1C(=O)c2ccccc2Sc2cc(Nc3ncc(C)cc3C)ccc21 [10-(But-2-yn-1-yl)-7-((3,5-dimethylpyridin-2-yl)amino)dibenzo[b,f][1,4]thiazepin-11 (10H)-one]
6.00 to 6.30 | CC#CCN1C(=O)c2ccc(F)cc2Sc2cc(Nc3nccnc3OC)ccc21 [10-(But-2-yn-1-yl)-3-fluoro-7-((3-methoxypyrazin-2-yl)amino)dibenzo[b,f][1,4]thiazepin-11 (10H)-one]
> 6.30 | CC#CCN1C(=O)c2ccccc2Sc2cc(Nc3cncnc3)ccc21 [10-(But-2-yn-1-yl)-7-(pyrimidin-5-ylamino)dibenzo[b,f][1,4]thiazepin-11 (10H)-one]
6.00 to 6.30 | CCC/C=C/CN1C(=O)c2ccccc2Sc2cc(Nc3nccnc3C#N)ccc21 [(E)-3-((10-(Hex-2-en-1-yl)-11-oxo-10,11-dihydrodibenzo[b,f][1,4]thiazepin-7-yl)amino) pyrazine-2-carbonitrile]
> 6.30 | CCC/C=C/CN1C(=O)c2ccccc2Sc2cc(Nc3ncccc3C)ccc21 [(E)-10-(Hex-2-en-1-yl)-7-((3-methylpyridin-2-yl)amino)dibenzo[b,f][1,4]thiazepin-11 (10H)-one]

Same assay, conditions: Homo sapiens, HCT-116; Table 9; HCT116, 72 hours; read-out: Activity

pIC50 | Compound
> 6.30 | CC#CCN1C(=O)c2ccccc2C(C)c2cc(NC(=O)c3ccc(OC)cc3)ccc21 (stereo not shown) [Table 9: —CH2CCMe; 4-MeOPh; CHMe, N-(5-(But-2-yn-1-yl)-11-methyl-6-oxo-6,11-dihydro-5H-dibenzo[b,e]azepin-2-yl)-4-methoxybenzamide]
> 6.30 | CC#CCN1C(=O)c2ccccc2C(C)c2cc(NC(=O)c3ccc4oc(=O)n(C)c4c3)ccc21 (stereo not shown) [N-(5-(But-2-yn-1-yl)-11-methyl-6-oxo-6,11-dihydro-5H-dibenzo[b,e]azepin-2-yl)-3-methyl-2-oxo-2,3-dihydrobenzo[d]oxazole-5-carboxamide]

Same assay, conditions: Table 3; HCT116, 72 hours; read-out: Activity

pIC50 | Compound
> 6.30 | CC#CCN1C(=O)c2ccccc2Sc2cc(NC(=O)N[C@H]3C[C@@H](OC)C3)cnc21 [Table 3: —CH2CCMe; cis-3-MeOcBu; CH/N]
> 6.30 | CC#CCN1C(=O)c2ccccc2Sc2cc(NC(=O)NC3CC(COC)C3)cnc21 (stereo not shown) [Table 3: —CH2CCMe; 3-MeOCH2-cBu; CH/N]

Same assay, conditions: Table 4; HCT116, 72 hours; read-out: Activity

pIC50 | Compound
> 6.30 | CC#CCN1C(=O)c2ccccc2Sc2cc(NC(=S)Nc3ccc(OC)cc3)cnc21 [Table 4: —CH2CCMe; 4-MeOPh; N]
> 6.30 | CC#CCN1C(=O)c2ccccc2Sc2cc(NC(=S)Nc3ccc4oc(=O)n(C)c4c3)cnc21
> 6.30 | CC#CCN1C(=O)c2ccccc2Sc2cc(NC(=S)NC3CC(COC)C3)cnc21 (stereo not shown) [Table 4: —CH2CCMe; 3-MeOCH2-cBu; N]

Same assay, conditions: Table 5; HCT116, 72 hours; read-out: Activity

Compound | pIC50
CC#CCN1C(=O)c2ccccc2Sc2cc(Nc3ncc(C)nc3C)cnc21 | > 6.30
CC=CCN1C(=O)c2ccccc2Sc2cc(Nc3ncc(C)cc3C)cnc21 | > 6.30
CC=CCN1C(=O)c2ccccc2Sc2cc(Nc3ncccc3C#N)ccc21 | > 6.30

Same assay, conditions: Table 7; cell viability assay, CellTiter-Glo, 72 hours; scaffold drawing 42 with R^2, R^3, X/Y, Z; read-out: Activity

Compound | pIC50
COCCN1C(=O)c2ccccc2Sc2cc(NC(=O)C3CCOCC3)ccc21 | 5.30 to 6.00
C#CCOCCN1C(=O)c2ccc(F)cc2Sc2cc(NC(=O)c3ccc4scnc4c3)ccc21 | > 6.30

Now from value to compound:

pIC50 | Compound
5.30 to 6.00 | COCCN1C(=O)c2ccccc2Sc2cc(NC(=O)c3cccc(C#N)c3)ccc21 [—(CH2)2OMe; 3-CNPh; CH/CH; S]
5.30 to 6.00 | COCCN1C(=O)c2ccccc2Sc2cc(NC(=O)c3cocn3)ccc21 [—(CH2)2OMe; oxazol-4-yl; CH/CH; S]
5.30 to 6.00 | COCCN1C(=O)c2ccccc2Sc2cc(NC(=O)c3cscn3)ccc21 [—(CH2)2OMe; thiazol-4-yl; CH/CH; S]
6.00 to 6.30 | COCCN1C(=O)c2ccccc2Sc2cc(NC(=O)c3ccc(OC)cc3F)ccc21 [—(CH2)2OMe; 2-F,4-MeOPh; CH/CH; S]
> 6.30 | C#CCOCCN1C(=O)c2ccccc2Sc2cc(NC(=O)c3cccc(CCC#N)c3)ccc21 [—(CH2)2OCH2CCH; 3-(2′-CNEt)Ph; CH/CH; S]

Same assay, conditions: Table 8; analogs of scaffold drawing 43 defined by R^2, R^3, X/Y, W; read-out: Activity (IC50 class, cell viability assay)

Compound | pIC50
CC#CCN1C(=O)c2cc(F)ccc2Sc2cc(NC(=O)C3CC4(CC(=O)C4)C3)ccc21 | > 6.30
CC#CCN1C(=O)c2cc(F)ccc2Sc2cc(NC(=O)C3CC4(CC(=NO)C4)C3)cnc21 (stereo not shown) | > 6.30
CC#CCN1C(=O)c2ccccc2Sc2cc(NC(=O)C3CCOC3)cnc21 (stereo not shown) [—CH2CCMe; tetrahydrofuran-3-yl; CH/CH; N] | > 6.30
COC12CC(C(=O)Nc3cnc4c(c3)Sc3ccccc3C(=O)N4CC#CC3CC3)(C1)C2 | > 6.30

Now from value to compound:

pIC50 | Compound
> 6.30 | C#CCN1C(=O)c2ccccc2Sc2cc(NC(=O)[C@H]3C[C@H](OC)C3)ccc21 [—CH2CCH; trans-3-MeOcBu; CH/CH; CH]
> 6.30 | CO[C@H]1C[C@@H](C(=O)Nc2ccc3c(c2)Sc2ccc(F)cc2C(=O)N3CC#CCF)C1 [—CH2CCCH2F; cis-3-MeOcBu; CH/CF; CH]
> 6.30 | CC#CCN1C(=O)c2ccccc2Sc2cc(NC(=O)C3COC3)ccc21 [—CH2CCMe; oxetan-3-yl; CH/CH; CH]
> 6.30 | CC#CCN1C(=O)c2ccccc2Sc2cc(NC(=O)c3ccc(OC)nc3)cnc21 [—CH2CCMe; 6-MeO-pyrid-3-yl; CH/CH; N]
> 6.30 | CC#CCN1C(=O)c2ccc(F)cc2Sc2cc(NC(=O)[C@H]3C[C@H](OC)C3)cnc21 [—CH2CCMe; trans-3-MeOcBu; CF/CH; N]
> 6.30 | CO[C@H]1C[C@H](C(=O)Nc2cnc3c(c2)Sc2ccccc2C(=O)N3CC#CC2CC2)C1 [—CH2CC^cPr; trans-3-MeOcBu; CH/CH; N]
> 6.30 | CO[C@H]1C[C@@H](C(=O)Nc2ccc3c(c2)Sc2ccc(F)cc2C(=O)N3CC#CCl)C1 [—CH2CCCl; cis-3-MeOcBu; CH/CF; CH]
> 6.30 | CC#CCN1C(=O)c2ccc(Cl)cc2Sc2cc(NC(=O)[C@H]3C[C@@H](O)C3)cnc21 [—CH2CCMe; cis-3-OH-cBu; CCI/CH; N]
> 6.30 | CC#CCN1C(=O)c2ccccc2Sc2cc(NC(=O)C3CCC3)cnc21 [—CH2CCMe; cBu; CH/CH; N]
> 6.30 | CO[C@H]1C[C@H](C(=O)Nc2ccc3c(c2)Sc2ccc(F)cc2C(=O)N3CC#CCF)C1 [—CH2CCCH2F; trans-3-MeOcBu; CH/CF; CH]
> 6.30 | CC#CCN1C(=O)c2ccc(F)cc2Sc2cc(NC(=O)[C@@H]3C[C@H]3COC)cnc21 (relative stereo) [—CH2CCMe; trans-2-MeOCH2-cPr; CF/CH; N]
> 6.30 | O=C(CC1COC1)Nc1cnc2c(c1)Sc1ccccc1C(=O)N2CC#CC1CC1 [—CH2CC^cPr; (oxetan-3-yl)CH2; CH/CH; N]
> 6.30 | COCC1CC(C(=O)Nc2ccc3c(c2)Sc2ccc(F)cc2C(=O)N3CC#CCF)C1 (stereo not shown) [—CH2CCCH2F; 3-MeOCH2-cBu; CH/CF; CH]
> 6.30 | CO[C@H]1C[C@H](C(=O)Nc2cnc3c(c2)Sc2ccccc2C(=O)N3CC#CCl)C1 [—CH2CCCl; trans-3-MeOcBu; CH/CH; N]
> 6.30 | CC#CCN1C(=O)c2cc(F)ccc2Sc2cc(NC(=O)[C@H]3C[C@@H](OC)C3)ccc21 [—CH2CCMe; cis-3-MeOcBu; CH/CF; CH]

Same assay, conditions: Table 9; HCT116, 72 hours; read-out: Activity

pIC50 | Compound
> 6.30 | CC#CCN1C(=O)c2ccccc2C(C)c2cc(NC(=O)[C@H]3C[C@@H](OC)C3)ccc21 (stereo partly drawn) [Table 9: —CH2CCMe; cis-3-MeOcBu; CHMe]
> 6.30 | CC1c2ccccc2C(=O)N(CC#CC2CC2)c2ccc(NC(=O)C3CC4(COC4)C3)cc21 (stereo not shown)
> 6.30 | CO[C@H]1C[C@H](C(=O)Nc2ccc3c(c2)C(C)(O)c2ccccc2C(=O)N3CC#CCl)C1 (stereo partly drawn) [Table 9: —CH2CCCl; trans-3-MeOcBu; CMeOH]
> 6.30 | CC#CCN1C(=O)c2ccccc2C(C)c2cc(NC(=O)[C@@H]3C[C@H]3COC)ccc21 (relative stereo)
> 6.30 | CC#CCN1C(=O)c2ccccc2C(C)c2cc(NC(=O)CC3COC3)ccc21 (stereo not shown)
> 6.30 | COCC1CC(C(=O)Nc2ccc3c(c2)C(C)(O)c2ccccc2C(=O)N3CC#CCl)C1 (stereo not shown) [Table 9: —CH2CCCl; 3-MeOCH2-cBu; CMeOH]
> 6.30 | COC12CC(C(=O)Nc3ccc4c(c3)C(C)c3ccccc3C(=O)N4CC#CC3CC3)(C1)C2 (stereo not shown)
> 6.30 | CC1c2ccccc2C(=O)N(CC#CC2CC2)c2ccc(NC(=O)CC3COC3)cc21 (stereo not shown)
> 6.30 | CC1c2ccccc2C(=O)N(CC#CC2CC2)c2ccc(NC(=O)C3COC3)cc21 (stereo not shown) [Table 9: —CH2CC^cPr; oxetan-3-yl; CHMe]

Same assay, conditions: cell viability assay; Table 10 analogs of scaffold drawing 45 defined by R2, R3, X/Y, W; read-out: Activity

pIC50 | Compound
> 6.30 | C#CCN1C(=O)c2ccccc2Sc2cc(NC(=O)[C@H]3C[C@H](OC)C3)ccc21 [—CH2CCH; trans-3-MeOcBu; CH/CH; CH]
> 6.30 | CC#CCN1C(=O)c2ccc(F)cc2Sc2cc(NC(=O)[C@H]3C[C@H](OC)C3)cnc21 [—CH2CCMe; trans-3-MeOcBu; CF/CH; N]
> 6.30 | COCC1CC(C(=O)Nc2cnc3c(c2)Sc2ccccc2C(=O)N3CC#CC2CC2)C1 (stereo not shown) [—CH2CCcPr; 3-MeOCH2-cBu; CH/CH; N]
> 6.30 | CO[C@H]1C[C@H](C(=O)Nc2cnc3c(c2)Sc2ccccc2C(=O)N3CC#CCl)C1 [—CH2CCCl; trans-3-MeOcBu; CH/CH; N]
